Laboratory results from ChEMBL document CHEMBL1201862, “PubChem BioAssay data set” (2004).
Active and inactive are the calls of the source.

Columns and labels:
Large T antigen = Large T antigen (Simian virus 40, UniProt P03070); assay type: functional, Betapolyomavirus macacae;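 further: Confirmatory-stage PubChem screen for compounds that inhibit SV40 T antigen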
[1] = target: Eukaryotic translation initiation factor 4E (Mus musculus, UniProt P63073); assay: blockers of eIF4G binding by eIF4E – biochemical, TR-FRET, dose response (AID 855); assay type: functional;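 further: potency for disrupting eIF4E binding to eIF4GI seen as loss of FRET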
Chain of Eukaryotic translation initiation factor 4E (P63073 whole entry): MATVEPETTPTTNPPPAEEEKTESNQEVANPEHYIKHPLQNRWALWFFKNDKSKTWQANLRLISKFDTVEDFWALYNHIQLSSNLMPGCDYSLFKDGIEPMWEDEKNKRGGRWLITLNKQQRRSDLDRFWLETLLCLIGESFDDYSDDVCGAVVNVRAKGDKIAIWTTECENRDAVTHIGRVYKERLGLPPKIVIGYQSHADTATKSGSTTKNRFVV

[2] = target: T1, Short transient receptor potential channel 4 (Mus musculus, UniProt Q9QUQ5); assay: block of DAMGO-driven TRPC4 calcium entry – cell-based, HEK293 TRPC4/mu-opioid, Fluo-4 calcium, dose response (AID 434942); assay type: functional;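 further: potency of inhibitors blocking the TRPC4 calcium response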
T1 sequence (Q9QUQ5 whole entry): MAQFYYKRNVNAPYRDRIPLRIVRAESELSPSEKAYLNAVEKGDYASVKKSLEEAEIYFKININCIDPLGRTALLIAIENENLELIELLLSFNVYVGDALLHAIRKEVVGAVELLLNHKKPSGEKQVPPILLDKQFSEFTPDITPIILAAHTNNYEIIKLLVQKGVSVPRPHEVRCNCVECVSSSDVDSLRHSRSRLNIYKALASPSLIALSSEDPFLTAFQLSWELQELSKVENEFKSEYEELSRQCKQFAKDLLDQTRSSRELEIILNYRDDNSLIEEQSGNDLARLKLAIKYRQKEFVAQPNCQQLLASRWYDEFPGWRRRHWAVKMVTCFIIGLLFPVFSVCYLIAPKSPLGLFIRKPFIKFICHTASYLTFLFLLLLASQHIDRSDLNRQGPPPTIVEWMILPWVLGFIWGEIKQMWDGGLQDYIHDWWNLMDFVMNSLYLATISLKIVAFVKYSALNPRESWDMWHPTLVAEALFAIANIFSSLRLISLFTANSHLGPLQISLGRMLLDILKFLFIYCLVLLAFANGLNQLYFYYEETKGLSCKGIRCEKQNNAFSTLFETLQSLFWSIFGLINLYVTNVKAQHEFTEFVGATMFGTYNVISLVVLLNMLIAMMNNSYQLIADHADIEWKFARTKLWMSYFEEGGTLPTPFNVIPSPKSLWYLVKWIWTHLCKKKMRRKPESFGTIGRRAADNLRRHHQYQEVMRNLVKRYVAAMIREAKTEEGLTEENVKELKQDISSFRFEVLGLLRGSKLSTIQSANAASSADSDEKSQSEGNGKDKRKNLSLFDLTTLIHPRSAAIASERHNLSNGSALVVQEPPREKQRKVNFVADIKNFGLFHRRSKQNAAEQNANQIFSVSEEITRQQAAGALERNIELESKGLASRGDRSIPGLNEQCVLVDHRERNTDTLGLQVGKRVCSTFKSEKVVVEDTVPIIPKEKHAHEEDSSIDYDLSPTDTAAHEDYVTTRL

Aminopeptidase N = target: T2, Aminopeptidase N (Plasmodium falciparum FcB1/Columbia, UniProt O96935); assay: malaria alanyl aminopeptidase activity blockers – biochemical, fluorogenic H-Leu-NHMec substrate, 1536-well (AID 1445); parameters: species or system Plasmodium falciparum 3D7, 3D7
T2 sequence (O96935 whole entry): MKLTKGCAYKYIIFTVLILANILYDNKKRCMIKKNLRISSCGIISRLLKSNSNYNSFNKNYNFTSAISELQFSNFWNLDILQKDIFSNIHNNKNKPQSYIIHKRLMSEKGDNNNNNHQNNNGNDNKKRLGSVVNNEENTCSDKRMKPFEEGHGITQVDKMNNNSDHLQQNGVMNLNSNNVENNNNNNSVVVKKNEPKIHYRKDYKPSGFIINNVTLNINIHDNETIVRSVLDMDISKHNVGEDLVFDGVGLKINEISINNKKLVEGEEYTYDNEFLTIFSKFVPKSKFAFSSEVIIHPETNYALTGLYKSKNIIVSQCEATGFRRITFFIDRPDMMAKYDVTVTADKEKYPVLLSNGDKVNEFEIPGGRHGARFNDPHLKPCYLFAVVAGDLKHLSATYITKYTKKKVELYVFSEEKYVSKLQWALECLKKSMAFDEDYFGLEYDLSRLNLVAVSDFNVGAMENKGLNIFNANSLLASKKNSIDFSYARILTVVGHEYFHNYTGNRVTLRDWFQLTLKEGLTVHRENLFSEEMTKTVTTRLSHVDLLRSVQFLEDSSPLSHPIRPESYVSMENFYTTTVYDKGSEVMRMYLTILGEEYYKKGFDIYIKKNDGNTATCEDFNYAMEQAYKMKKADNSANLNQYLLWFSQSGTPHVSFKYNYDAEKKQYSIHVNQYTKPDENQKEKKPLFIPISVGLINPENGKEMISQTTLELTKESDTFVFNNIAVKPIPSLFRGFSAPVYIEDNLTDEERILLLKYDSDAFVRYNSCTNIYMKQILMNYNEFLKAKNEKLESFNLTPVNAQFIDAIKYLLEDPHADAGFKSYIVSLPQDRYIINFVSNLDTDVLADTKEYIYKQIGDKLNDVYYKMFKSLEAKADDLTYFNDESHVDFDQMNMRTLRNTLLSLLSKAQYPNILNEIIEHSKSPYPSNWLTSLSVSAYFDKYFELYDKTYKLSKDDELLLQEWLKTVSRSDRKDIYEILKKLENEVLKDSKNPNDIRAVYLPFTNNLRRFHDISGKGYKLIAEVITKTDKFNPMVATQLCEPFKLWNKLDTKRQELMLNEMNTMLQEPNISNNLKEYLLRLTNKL

Leucine aminopeptidase = target: T3, Leucine aminopeptidase (Plasmodium falciparum 3D7, UniProt Q8IL11); assay: P. falciparum M17LAP inhibitors, primary screen, biochemical, fluorogenic H-Leu-NHMec substrate, 1536-well (AID 1619); assay type: functional
T3 sequence (Q8IL11 whole entry): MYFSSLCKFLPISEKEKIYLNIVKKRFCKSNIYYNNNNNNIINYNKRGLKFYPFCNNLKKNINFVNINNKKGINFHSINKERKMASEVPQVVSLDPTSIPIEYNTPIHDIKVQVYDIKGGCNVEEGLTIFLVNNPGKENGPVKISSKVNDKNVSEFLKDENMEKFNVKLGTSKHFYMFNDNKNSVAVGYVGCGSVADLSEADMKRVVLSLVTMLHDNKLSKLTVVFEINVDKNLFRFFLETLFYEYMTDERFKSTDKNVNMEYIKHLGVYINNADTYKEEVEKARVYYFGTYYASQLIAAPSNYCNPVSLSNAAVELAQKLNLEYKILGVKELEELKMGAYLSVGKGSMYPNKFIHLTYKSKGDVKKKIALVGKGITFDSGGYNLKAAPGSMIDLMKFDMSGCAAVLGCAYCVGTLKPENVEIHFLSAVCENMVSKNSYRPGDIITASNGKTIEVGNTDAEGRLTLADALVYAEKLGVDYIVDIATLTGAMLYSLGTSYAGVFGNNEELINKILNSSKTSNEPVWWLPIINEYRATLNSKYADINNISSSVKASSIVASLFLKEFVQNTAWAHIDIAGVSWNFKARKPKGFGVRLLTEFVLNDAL

Protein RecA = target: T4, Protein RecA (Mycobacterium tuberculosis, UniProt P9WHJ3); assay: Fluorescence Cell-Free Homogeneous Dose Retest to Identify Inhibitors of RecA-Intein Splicing Activity. [Related pubchem assays (depositor defined):AID2097, AID2223, AID489010, AID492950]; assay type: functional
T4 sequence (P9WHJ3 whole entry): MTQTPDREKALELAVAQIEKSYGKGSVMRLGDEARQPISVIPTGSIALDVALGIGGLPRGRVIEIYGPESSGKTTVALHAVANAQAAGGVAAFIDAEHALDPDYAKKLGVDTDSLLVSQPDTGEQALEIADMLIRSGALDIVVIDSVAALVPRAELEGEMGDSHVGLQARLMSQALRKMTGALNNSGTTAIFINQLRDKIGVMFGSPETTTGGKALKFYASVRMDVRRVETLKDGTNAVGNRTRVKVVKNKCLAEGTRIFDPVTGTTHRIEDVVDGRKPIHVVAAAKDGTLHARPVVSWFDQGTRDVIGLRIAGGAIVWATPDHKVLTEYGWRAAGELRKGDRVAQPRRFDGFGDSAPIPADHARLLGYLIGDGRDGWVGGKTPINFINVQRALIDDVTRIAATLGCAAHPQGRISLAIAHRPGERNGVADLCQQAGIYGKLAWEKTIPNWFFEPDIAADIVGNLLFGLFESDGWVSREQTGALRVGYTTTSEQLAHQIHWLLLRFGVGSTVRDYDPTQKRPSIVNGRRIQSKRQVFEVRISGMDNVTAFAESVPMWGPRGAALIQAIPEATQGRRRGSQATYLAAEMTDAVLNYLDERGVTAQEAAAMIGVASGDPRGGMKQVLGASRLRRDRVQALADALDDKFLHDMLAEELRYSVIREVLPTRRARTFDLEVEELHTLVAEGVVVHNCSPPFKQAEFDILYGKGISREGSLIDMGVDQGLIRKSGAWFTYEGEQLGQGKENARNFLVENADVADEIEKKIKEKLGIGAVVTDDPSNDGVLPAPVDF

[3] = target: T5, Ubiquitin-conjugating enzyme E2 N (Homo sapiens, UniProt P61088); assay type: functional;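 further: Dose-response confirmation in a TR-FRET assay detecting UBC13-driven polyubiquitin chain formation, inhibition measured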
T5 sequence (P61088 whole entry): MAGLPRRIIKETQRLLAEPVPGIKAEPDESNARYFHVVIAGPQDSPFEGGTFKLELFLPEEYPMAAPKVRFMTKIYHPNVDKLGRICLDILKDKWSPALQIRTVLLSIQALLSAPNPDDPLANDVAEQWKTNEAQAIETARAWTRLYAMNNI

[4] = target: T6, Replicative DNA helicase DnaB (Mycobacterium tuberculosis, UniProt P9WMR3); assay: DnaB intein splicing inhibitors, dose response, biochemical, cell-free fluorescence (AID 449749); assay type: functional
T6 sequence (P9WMR3 whole entry): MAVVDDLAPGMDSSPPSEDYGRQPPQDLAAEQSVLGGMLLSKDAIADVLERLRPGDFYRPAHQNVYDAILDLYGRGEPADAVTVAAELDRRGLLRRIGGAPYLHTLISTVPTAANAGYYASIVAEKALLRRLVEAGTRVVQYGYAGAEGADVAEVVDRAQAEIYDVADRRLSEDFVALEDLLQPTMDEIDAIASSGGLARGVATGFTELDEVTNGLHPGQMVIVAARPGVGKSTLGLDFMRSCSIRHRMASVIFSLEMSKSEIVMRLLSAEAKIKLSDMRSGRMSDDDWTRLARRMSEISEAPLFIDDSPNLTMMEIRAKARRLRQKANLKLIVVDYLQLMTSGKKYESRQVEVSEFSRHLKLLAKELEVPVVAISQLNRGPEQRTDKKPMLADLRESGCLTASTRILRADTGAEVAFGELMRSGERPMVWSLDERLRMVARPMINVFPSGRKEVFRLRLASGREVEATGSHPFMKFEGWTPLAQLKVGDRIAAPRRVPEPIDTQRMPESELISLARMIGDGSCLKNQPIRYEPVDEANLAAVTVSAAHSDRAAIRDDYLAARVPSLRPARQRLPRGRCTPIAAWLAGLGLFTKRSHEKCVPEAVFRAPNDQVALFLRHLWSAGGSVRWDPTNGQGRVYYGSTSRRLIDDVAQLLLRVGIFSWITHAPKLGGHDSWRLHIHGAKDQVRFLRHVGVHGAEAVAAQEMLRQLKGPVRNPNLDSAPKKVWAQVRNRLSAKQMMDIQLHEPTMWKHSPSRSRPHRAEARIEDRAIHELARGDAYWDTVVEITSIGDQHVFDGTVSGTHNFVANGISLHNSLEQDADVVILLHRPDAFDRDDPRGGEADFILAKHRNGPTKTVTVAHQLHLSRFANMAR

[5] = target: DNA dC->dU-editing enzyme APOBEC-3G (Homo sapiens, UniProt Q9HC16); assay: Dose Response confirmation of small molecule APOBEC3G DNA Deaminase Inhibitors via a fluorescence-based single-stranded DNA deaminase assay. [Related pubchem assays (depositor defined):AID493012, AID493028]; assay type: functional
Chain of DNA dC->dU-editing enzyme APOBEC-3G (Q9HC16 whole entry): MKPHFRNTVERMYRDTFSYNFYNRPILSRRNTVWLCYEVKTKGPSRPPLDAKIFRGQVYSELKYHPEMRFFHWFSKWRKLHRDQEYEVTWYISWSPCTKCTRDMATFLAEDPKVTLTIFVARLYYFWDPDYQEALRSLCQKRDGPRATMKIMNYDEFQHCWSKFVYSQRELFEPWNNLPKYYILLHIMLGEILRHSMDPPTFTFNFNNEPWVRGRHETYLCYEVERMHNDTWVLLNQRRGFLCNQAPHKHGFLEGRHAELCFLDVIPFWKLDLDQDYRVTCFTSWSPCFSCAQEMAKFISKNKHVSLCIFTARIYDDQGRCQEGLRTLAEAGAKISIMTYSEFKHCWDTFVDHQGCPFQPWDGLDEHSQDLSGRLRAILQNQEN

Nonstructural protein 1 = Nonstructural protein 1 (Influenza A virus, UniProt Q194T2); assay type: functional, Influenza A virus (A/California/07/2009(H1N1))
Chain of Nonstructural protein 1 (Q194T2 whole entry): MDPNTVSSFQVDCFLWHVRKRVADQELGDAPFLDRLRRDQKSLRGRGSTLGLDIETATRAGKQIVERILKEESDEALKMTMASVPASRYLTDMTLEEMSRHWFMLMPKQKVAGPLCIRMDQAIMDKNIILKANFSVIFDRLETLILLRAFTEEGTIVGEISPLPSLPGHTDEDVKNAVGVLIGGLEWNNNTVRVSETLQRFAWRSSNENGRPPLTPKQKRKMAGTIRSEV

cells [6] = assay type: functional, cell-based
cells [7] = assay type: functional, cell-based; remark: listed apart in the source
[8] = NIH3T3 cell viability loss – ATP luminescence, mouse fibroblasts, counter-screen, dose response (AID 2010); assay type: functional, cell-based;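 further: cells exposed to compound for about 90 hours before reading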
[9] = Trypanosoma cruzi growth suppression in host cells – NIH3T3 host cells, beta-gal luminescence, confirmation (AID 2044); assay type: functional, cell-based;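 further: intracellular parasites grown in NIH/3T3 mouse fibroblasts as host cells; luminescent beta-galactosidase reporter signal from transgenic T. cruzi replicating inside host cells; inhibitors lower the luminescence signal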

Chain of Large T antigen (P03070 whole entry): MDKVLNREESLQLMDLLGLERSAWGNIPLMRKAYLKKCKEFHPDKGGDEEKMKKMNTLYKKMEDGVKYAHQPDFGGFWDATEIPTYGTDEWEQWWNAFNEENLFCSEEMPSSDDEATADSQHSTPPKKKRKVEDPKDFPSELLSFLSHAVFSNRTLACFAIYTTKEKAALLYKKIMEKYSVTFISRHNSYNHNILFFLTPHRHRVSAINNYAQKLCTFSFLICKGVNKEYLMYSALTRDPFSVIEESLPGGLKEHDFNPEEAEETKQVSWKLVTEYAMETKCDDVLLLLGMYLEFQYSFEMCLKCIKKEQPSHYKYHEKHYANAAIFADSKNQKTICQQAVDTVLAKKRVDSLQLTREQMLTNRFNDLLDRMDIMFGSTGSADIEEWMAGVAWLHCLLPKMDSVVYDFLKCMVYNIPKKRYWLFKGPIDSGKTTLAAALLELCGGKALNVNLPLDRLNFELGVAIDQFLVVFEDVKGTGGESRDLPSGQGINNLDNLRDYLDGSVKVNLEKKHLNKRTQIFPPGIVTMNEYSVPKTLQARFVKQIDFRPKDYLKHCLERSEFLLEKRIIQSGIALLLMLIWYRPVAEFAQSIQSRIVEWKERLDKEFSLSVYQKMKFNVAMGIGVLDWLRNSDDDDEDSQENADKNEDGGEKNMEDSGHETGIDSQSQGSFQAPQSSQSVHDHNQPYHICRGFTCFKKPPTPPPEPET

SMILES: Oc1ccc(-c2[nH]ncc2-c2cccc3cccnc23)c(O)c1
- IC50 (Large T antigen): 25.7 µM (active)
- IC50 [1]: > 64 µM (inactive)

SMILES: Fc1ccc(C2CCCN2Cc2nc(Cc3ccccc3)no2)cc1 (stereo unspecified)
- IC50 [1]: 50 µM (inactive)

SMILES: O=C(Nc1ccccc1Oc1cccnc1)C1CCCN(Cc2ccc(F)cc2)C1 (stereo unspecified)
- EC50 [2]: 3.35 µM (active)

SMILES: O=C(NN1C(=O)c2ccccc2NC12CCCCC2)c1ccccc1
- IC50 (Aminopeptidase N): 6.87 µM (active)

SMILES: CCOc1cc(C2C(C#N)=C(N)Oc3[nH]nc(-c4ccccc4)c32)ccc1O (stereo unspecified)
- IC50 (Leucine aminopeptidase): 77.1 µM (active)
- EC50 (Protein RecA): 0.689 µM (active)
- IC50 [3]: > 20 µM (inactive)
- AC50 [4]: 1.81 µM (active)

SMILES: CCOc1ccc(Nc2nc3cc(S(=O)(=O)N(CC)CC)ccc3o2)cc1
- IC50 [5]: > 100 µM (inactive)

SMILES: COc1cc2cc(C(c3nnnn3C3CCCC3)N(C)C3CCCCC3)c(O)nc2cc1OC (stereo unspecified)
- IC50 [1]: > 64 µM (inactive)

SMILES: O=C(Cc1ccccc1[N+](=O)[O-])OCc1cccc([N+](=O)[O-])c1
- EC50 [2]: 0.376 µM (active)

SMILES: Cc1nnc2sc(SCC(=O)Nc3ccc(Cl)cc3)nn2c1=O
- IC50 (Nonstructural protein 1): 9.75 µM (active)

SMILES: COc1ccc(CC(=O)Nc2nnc(C(C)C)s2)cc1
- IC50 [1]: 50 µM (inactive)

SMILES: Cc1ccc(/C(=N/Nc2ncnc3ccccc23)C(=O)O)cc1
- IC50 (Nonstructural protein 1): 9.46 µM (active)
- EC50 (cells [6]): > 350 µM (not active)
- EC50 (cells [7]): > 350 µM (not active)

SMILES: Cc1cc(C)n(CC(=O)N/N=C/c2cc(Br)cc([N+](=O)[O-])c2O)n1
- EC50 [8]: 15.9 µM (active)
- IC50 (Aminopeptidase N): 19.2 µM (active)
- EC50 [9]: 0.678 µM (active)

SMILES: CSc1n/c(=N/C(C)=O)ss1
- IC50 [5]: 25.8 µM (active)
